Data as given in patent publication US11161839B2, “2-quinolone derived inhibitors of BCL6” (Cancer Research Technology Limited, priority 2017, dated 2021).
Like-named read-outs stand apart in the source and are kept apart here.

Target: human BCL6 BTB domain (Trx-6xHis-BCL6) (Homo sapiens (Human), UniProt P41182)
Experiment: HTRF in vitro assay (BCL6 BTB domain / BCOR-AF633 peptide)
Assay type: binding
Conditions: for IC50: read-out: HTRF pIC50 (converted)
[1] = further generated data (Table 1b), 1 nM Trx-6xHis-BCL6, 0.5 nM anti-6xHis-Terbium cryptate
[2] = initially generated data (Table 1a), 10 nM Trx-6xHis-BCL6, 1 nM anti-6xHis-Terbium cryptate

| SMILES | HTRF pIC50 [1] | HTRF pIC50 [2] | also measured |
| --- | --- | --- | --- |
| CC(Nc1cc(=O)n(Cc2ccccc2)c2ccc(Nc3cc(C(=O)O)nc(Cl)c3C#N)cc12)c1ncccn1 (stereo not drawn) [Example 9q, 4-((1-benzyl-2-oxo-4-((1-(pyrimidin-2-yl)ethyl)amino)-1,2-dihydroquinolin-6-yl)amino)-6-chloro-5-cyanopicolinic acid] | 6.81 |  |  |
| COC1CCC1Nc1cc(=O)n(C)c2ccc(Nc3ccnc(Cl)c3C#N)cc12 (racemic) [Example 22b, rac-2-chloro-4-((4-(((1R,2S)-2-methoxycyclobutyl)amino)-1-methyl-2-oxo-1,2-dihydroquinolin-6-yl)amino)nicotinonitrile or rac-2-chloro-4-((4-(((1R,2R)-2-methoxycyclobutyl)amino)-1-methyl-2-oxo-1,2-dihydroquinolin-6-yl)amino)nicotinonitrile] |  |  | IC50 [1]: 575 nM |
| Cc1cc(C)n(-c2ncc(Cl)c(Nc3ccc4c(c3)c(NC(C)c3ncccn3)cc(=O)n4C)n2)n1 (stereo not drawn) [Example 14f, 6-((5-chloro-2-(3,5-dimethyl-1H-pyrazol-1-yl)pyrimidin-4-yl)amino)-1-methyl-4-((1-(pyrimidin-2-yl)ethyl)amino)quinolin-2(1H)-one] | 6.49 |  |  |
| Cc1nnc(C(C)Nc2cc(=O)n(C)c3ccc(Nc4ccnc(Cl)c4C#N)cc23)o1 (stereo not drawn) [Example 3l, 2-Chloro-4-((1-methyl-4-((1-(5-methyl-1,3,4-oxadiazol-2-yl)ethyl)amino)-2-oxo-1,2-dihydroquinolin-6-yl)amino)nicotinonitrile] | 5.93 | 6.16 |  |
| COc1ncc(Cl)c(Nc2ccc3c(c2)c(N[C@H](CO)C2CC2)cc(=O)n3C)n1 [Example 11f, (S)-6-((5-chloro-2-methoxypyrimidin-4-yl)amino)-4-((1-cyclopropyl-2-hydroxyethyl)amino)-1-methylquinolin-2(1H)-one] | 6.13 |  |  |
| C[C@@H](Nc1cc(=O)n(C)c2ccc(Nc3cc(N4CCC(C(=O)N(C)C)CC4)ncc3Cl)cc12)C1CC1 [Example 6i, (R)-1-(5-chloro-4-((4-((1-cyclopropylethyl)amino)-1-methyl-2-oxo-1,2-dihydroquinolin-6-yl)amino)pyridin-2-yl)-N,N-dimethylpiperidine-4-carboxamide] | 6.35 |  |  |
| CCNC(=O)C(C)Nc1cc(=O)n(C)c2ccc(Nc3ccnc(Cl)c3C#N)cc12 (racemic) [Example 3k, rac-2-((6-((2-Chloro-3-cyanopyridin-4-yl)amino)-1-methyl-2-oxo-1,2-dihydroquinolin-4-yl)amino)-N-ethylpropanamide] |  |  | IC50 [2]: 676 nM |
| CC(Nc1cc(=O)n(C)c2ncc(Nc3ccnc(Cl)c3Cl)cc12)c1ncccn1 (stereo not drawn) [Example 6e, 6-((2,3-dichloropyridin-4-yl)amino)-1-methyl-4-((1-(pyrimidin-2-yl)ethyl)amino)-1,8-naphthyridin-2(1H)-one] | 6.28 |  |  |
| Cn1c(=O)cc(NC2(C)CCCC2)c2cc(Nc3cc(C(=O)O)nc(Cl)c3C#N)ccc21 [Example 2d, 6-chloro-5-cyano-4-[[1-methyl-4-[(1-methylcyclopentyl)amino]-2-oxo-6-quinolyl]amino]pyridine-2-carboxylic acid] | 6.65 | 6.51 |  |
| CCNc1cc(=O)n(CCOCCOC)c2ccc(Nc3ccnc(Cl)c3C#N)cc12 [Example 1o, 2-chloro-4-[[4-(ethylamino)-1-[2-(2-methoxyethoxy)ethyl]-2-oxo-6-quinolyl]amino]pyridine-3-carbonitrile] |  |  | IC50 [1]: 708 nM |
| COc1cc(Nc2ccnc(Cl)c2C#N)cc2c(NC(C)(C)c3ncccn3)cc(=O)n(C)c12 [Example 10r, 2-chloro-4-((8-methoxy-1-methyl-2-oxo-4-((2-(pyrimidin-2-yl)propan-2-yl)amino)-1,2-dihydroquinolin-6-yl)amino)nicotinonitrile] | 6.32 |  |  |
| CNC(=O)[C@@H](C)Nc1cc(=O)[nH]c2ccc(Nc3ccnc(Cl)c3C#N)cc12 [Example 3p, (R)-2-((6-((2-chloro-3-cyanopyridin-4-yl)amino)-2-oxo-1,2-dihydroquinolin-4-yl)amino)-N-methylpropanamide] | 6.61 | 6.61 |  |
| Cn1c(=O)cc(NC(C)(C)C)c2cc(Nc3cc(C(=O)O)nc(Cl)c3C#N)ccc21 [Example 9n, 4-((4-(tert-butylamino)-1-methyl-2-oxo-1,2-dihydroquinolin-6-yl)amino)-6-chloro-5-cyanopicolinic acid] | 6.84 |  |  |

Now from value to compound, other results behind:

| HTRF pIC50 [1] | HTRF pIC50 [2] | SMILES | also measured |
| --- | --- | --- | --- |
| 6.13 | 6.10 | Cn1c(=O)cc(N[C@H]2CCOC2)c2cc(Nc3ccnc(Cl)c3C#N)ccc21 [Example 1g, 2-chloro-4-[[1-methyl-2-oxo-4-[[(3S)-tetrahydrofuran-3-yl]amino]-6-quinolyl]amino]pyridine-3-carbonitrile] |  |
| 6.55 | 6.41 | Cn1c(=O)cc(NC2CC2)c2cc(Nc3cc(C(=O)O)nc(Cl)c3C#N)ccc21 [Example 2b, 6-chloro-5-cyano-4-[[4-(cyclopropylamino)-1-methyl-2-oxo-6-quinolyl]amino]pyridine-2-carboxylic acid] |  |
| 6.38 | 6.36 | Cn1c(=O)cc(NC2(C)CC2)c2cc(Nc3cc(C(=O)O)nc(Cl)c3C#N)ccc21 [Example 2c, 6-chloro-5-cyano-4-[[1-methyl-4-[(1-methylcyclopropyl)amino]-2-oxo-6-quinolyl]amino]pyridine-2-carboxylic acid] |  |
| 7.05 |  | Cn1c(=O)cc(NC2(C#N)CC2)c2cc(Nc3cc(C(=O)O)nc(Cl)c3C#N)ccc21 [Example 9g, 6-chloro-5-cyano-4-((4-((1-cyanocyclopropyl)amino)-1-methyl-2-oxo-1,2-dihydroquinolin-6-yl)amino)picolinic acid] |  |
| 6.42 | 6.36 | COC1CCC(NC(=O)[C@@H](C)Nc2cc(=O)n(C)c3ccc(Nc4ccnc(Cl)c4C#N)cc23)CC1 (stereo partly drawn) [Example 3i, (R)-2-((6-((2-Chloro-3-cyanopyridin-4-yl)amino)-1-methyl-2-oxo-1,2-dihydroquinolin-4-yl)amino)-N-(4-methoxycyclohexyl)propanamide] |  |
| 6.43 | 6.21 | CCNc1cc(=O)n(C)c2ccc(Nc3cc(C(=O)NC)nc(Cl)c3C#N)cc12 [Example 5, 6-Chloro-5-cyano-4-[[4-(ethylamino)-1-methyl-2-oxo-6-quinolyl]amino]-N-methyl-pyridine-2-carboxamide] |  |
| 7.13 |  | C[C@@H](Nc1cc(=O)n(C)c2ccc(Nc3cc(C(=O)O)nc(Cl)c3C#N)cc12)C1CC1 [Example 9b, (R)-6-chloro-5-cyano-4-((4-((1-cyclopropylethyl)amino)-1-methyl-2-oxo-1,2-dihydroquinolin-6-yl)amino)picolinic acid] |  |
| 6.42 |  | Cn1cc(CNC(=O)C(C)(C)Nc2cc(=O)n(C)c3ccc(Nc4ccnc(Cl)c4C#N)cc23)cn1 [Example 11c, 2-((6--((2-chloro-3-cyanopyridin-4-yl)amino)-1-methyl-2-oxo-1,2-dihydroquinolin-4-yl)amino)-2-methyl-N-((1-methyl-1H-pyrazol-4-yl)methyl)propanamide] |  |
| 7.01 |  | COCC(C)(C)Nc1cc(=O)n(C)c2ccc(Nc3cc(C(=O)O)nc(Cl)c3C#N)cc12 [Example 9m, 6-chloro-5-cyano-4-((4-((1-methoxy-2-methylpropan-2-yl)amino)-1-methyl-2-oxo-1,2-dihydroquinolin-6-yl)amino)picolinic acid] |  |
